Assay results: patent US20100267561A1, “HERBICIDAL PYRIDAZINONE DERIVATIVES” (priority 2007, published 2010)

What was measured:
Test in all cases: Test E pre-/postemergence plant response
Format in all cases: in vivo
Settings in all cases: scale 0 to 100
[1] = test system: southern (S.) sandbur (Cenchrus echinatus)
How it was run: (§1)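 Pre/post herbicide screen; formulation: non-phytotoxic solvent mix + surfactant. Post timing 1–4 leaves (2–18 cm ht). Greenhouse 14–21 d; visual 0 (none) to 100 (complete control) vs controls.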

[2] = test system: naked crabgrass (Digitaria nuda)
How it was run: as §1

[3] = test system: quackgrass (Elytrigia repens)
How it was run: as §1

[4] = test system: large crabgrass (Digitaria sanguinalis)
How it was run: as §1

[5] = test system: black mustard (Brassica nigra)
How it was run: as §1

[6] = test system: broadleaf signalgrass (Brachiaria platyphylla)
How it was run: as §1

[7] = test system: dallisgrass (Paspalum dilatatum)
How it was run: as §1

[8] = test system: Italian ryegrass (Lolium multiflorum)
How it was run: as §1

[9] = test system: common purslane (Portulaca oleracea)
How it was run: as §1

[10] = test system: common groundsel (Senecio vulgaris)
How it was run: as §1

[11] = test system: common chickweed (Stellaria media)
How it was run: as §1

SMILES: Cc1cc(-c2ccc(Cl)cc2)nn1-c1c(OC(=O)C(C)C)cnn(C)c1=O [Compound 34]
- Plant response rating, Sandbur, S. ([1]; 16 g ai/ha, Preemergence): 75
- Plant response rating, Sandbur, S. ([1]; 31 g ai/ha, Preemergence): 90
- Plant response rating, Sandbur, S. ([1]; 62 g ai/ha, Preemergence): 100
- Plant response rating, Sandbur, S. ([1]; Postemergence, 8 g ai/ha): 75
- Plant response rating, Sandbur, S. ([1]; Postemergence, 16 g ai/ha): 75
- Plant response rating, Sandbur, S. ([1]; Postemergence, 31 g ai/ha): 90
- Plant response rating, Sandbur, S. ([1]; Postemergence, 62 g ai/ha): 100
- Plant response rating, Crabgrass, Naked ([2]; 16 g ai/ha, Preemergence): 100
- Plant response rating, Crabgrass, Naked ([2]; 31 g ai/ha, Preemergence): 100
- Plant response rating, Crabgrass, Naked ([2]; 62 g ai/ha, Preemergence): 100
- Plant response rating, Crabgrass, Naked ([2]; Postemergence, 8 g ai/ha): 40
- Plant response rating, Crabgrass, Naked ([2]; Postemergence, 16 g ai/ha): 80
- Plant response rating, Crabgrass, Naked ([2]; Postemergence, 62 g ai/ha): 100
- Plant response rating, Quackgrass ([3]; 16 g ai/ha, Preemergence): 20
- Plant response rating, Quackgrass ([3]; 31 g ai/ha, Preemergence): 50
- Plant response rating, Quackgrass ([3]; 62 g ai/ha, Preemergence): 70
- Plant response rating, Quackgrass ([3]; Postemergence, 8 g ai/ha): 0
- Plant response rating, Quackgrass ([3]; Postemergence, 16 g ai/ha): 0
- Plant response rating, Quackgrass ([3]; Postemergence, 31 g ai/ha): 30
- Plant response rating, Quackgrass ([3]; Postemergence, 62 g ai/ha): 40
- Plant response rating, Crabgrass, Large ([4]; 31 g ai/ha, Preemergence): 50
- Plant response rating, Crabgrass, Large ([4]; 62 g ai/ha, Preemergence): 100
- Plant response rating, Crabgrass, Large ([4]; Postemergence, 8 g ai/ha): 60
- Plant response rating, Crabgrass, Large ([4]; Postemergence, 16 g ai/ha): 75
- Plant response rating, Crabgrass, Large ([4]; Postemergence, 31 g ai/ha): 100
- Plant response rating, Crabgrass, Large ([4]; Postemergence, 62 g ai/ha): 100
- Plant response rating, Mustard, Black ([5]; 16 g ai/ha, Preemergence): 0
- Plant response rating, Mustard, Black ([5]; 31 g ai/ha, Preemergence): 0
- Plant response rating, Mustard, Black ([5]; 62 g ai/ha, Preemergence): 0
- Plant response rating, Mustard, Black ([5]; Postemergence, 8 g ai/ha): 0
- Plant response rating, Mustard, Black ([5]; Postemergence, 16 g ai/ha): 0
- Plant response rating, Mustard, Black ([5]; Postemergence, 31 g ai/ha): 0
- Plant response rating, Mustard, Black ([5]; Postemergence, 62 g ai/ha): 0
- Plant response rating, Signalgrass ([6]; 16 g ai/ha, Preemergence): 65
- Plant response rating, Signalgrass ([6]; 31 g ai/ha, Preemergence): 90
- Plant response rating, Signalgrass ([6]; 62 g ai/ha, Preemergence): 100
- Plant response rating, Signalgrass ([6]; Postemergence, 8 g ai/ha): 75
- Plant response rating, Signalgrass ([6]; Postemergence, 16 g ai/ha): 85
- Plant response rating, Signalgrass ([6]; Postemergence, 31 g ai/ha): 95
- Plant response rating, Signalgrass ([6]; Postemergence, 62 g ai/ha): 100
- Plant response rating, Dallisgrass ([7]; 16 g ai/ha, Preemergence): 50
- Plant response rating, Dallisgrass ([7]; 31 g ai/ha, Preemergence): 85
- Plant response rating, Dallisgrass ([7]; 62 g ai/ha, Preemergence): 85
- Plant response rating, Dallisgrass ([7]; Postemergence, 8 g ai/ha): 10
- Plant response rating, Dallisgrass ([7]; Postemergence, 16 g ai/ha): 20
- Plant response rating, Dallisgrass ([7]; Postemergence, 31 g ai/ha): 20
- Plant response rating, Dallisgrass ([7]; Postemergence, 62 g ai/ha): 70
- Plant response rating, Ryegrass, Italian ([8]; 16 g ai/ha, Preemergence): 80
- Plant response rating, Ryegrass, Italian ([8]; 31 g ai/ha, Preemergence): 100
- Plant response rating, Ryegrass, Italian ([8]; 62 g ai/ha, Preemergence): 100
- Plant response rating, Ryegrass, Italian ([8]; Postemergence, 8 g ai/ha): 60
- Plant response rating, Ryegrass, Italian ([8]; Postemergence, 16 g ai/ha): 95
- Plant response rating, Ryegrass, Italian ([8]; Postemergence, 31 g ai/ha): 100
- Plant response rating, Ryegrass, Italian ([8]; Postemergence, 62 g ai/ha): 100
- Plant response rating, Purslane ([9]; 16 g ai/ha, Preemergence): 0
- Plant response rating, Purslane ([9]; 31 g ai/ha, Preemergence): 0
- Plant response rating, Purslane ([9]; Postemergence, 8 g ai/ha): 0
- Plant response rating, Purslane ([9]; Postemergence, 16 g ai/ha): 0
- Plant response rating, Purslane ([9]; Postemergence, 31 g ai/ha): 0
- Plant response rating, Purslane ([9]; Postemergence, 62 g ai/ha): 0
- Plant response rating, Groundsel ([10]; 16 g ai/ha, Preemergence): 0
- Plant response rating, Groundsel ([10]; 31 g ai/ha, Preemergence): 0
- Plant response rating, Groundsel ([10]; 62 g ai/ha, Preemergence): 0
- Plant response rating, Groundsel ([10]; Postemergence, 8 g ai/ha): 0
- Plant response rating, Groundsel ([10]; Postemergence, 16 g ai/ha): 0
- Plant response rating, Groundsel ([10]; Postemergence, 31 g ai/ha): 0
- Plant response rating, Groundsel ([10]; Postemergence, 62 g ai/ha): 0
- Plant response rating, Chickweed ([11]; 16 g ai/ha, Preemergence): 0

SMILES: CCc1cc(-c2ccc(Cl)cc2)nn1-c1c(OS(C)(=O)=O)cnn(C)c1=O [Compound 39]
- Plant response rating, Sandbur, S. ([1]; 16 g ai/ha, Preemergence): 90
- Plant response rating, Sandbur, S. ([1]; 31 g ai/ha, Preemergence): 100
- Plant response rating, Sandbur, S. ([1]; 62 g ai/ha, Preemergence): 100
- Plant response rating, Sandbur, S. ([1]; Postemergence, 8 g ai/ha): 75
- Plant response rating, Sandbur, S. ([1]; Postemergence, 16 g ai/ha): 85
- Plant response rating, Sandbur, S. ([1]; Postemergence, 31 g ai/ha): 95
- Plant response rating, Sandbur, S. ([1]; Postemergence, 62 g ai/ha): 100
- Plant response rating, Crabgrass, Naked ([2]; 8 g ai/ha, Preemergence): 75
- Plant response rating, Crabgrass, Naked ([2]; 16 g ai/ha, Preemergence): 98
- Plant response rating, Crabgrass, Naked ([2]; 31 g ai/ha, Preemergence): 98
- Plant response rating, Crabgrass, Naked ([2]; 62 g ai/ha, Preemergence): 100
- Plant response rating, Crabgrass, Naked ([2]; Postemergence, 8 g ai/ha): 65
- Plant response rating, Crabgrass, Naked ([2]; Postemergence, 16 g ai/ha): 80
- Plant response rating, Crabgrass, Naked ([2]; Postemergence, 31 g ai/ha): 80
- Plant response rating, Crabgrass, Naked ([2]; Postemergence, 62 g ai/ha): 98
- Plant response rating, Quackgrass ([3]; 16 g ai/ha, Preemergence): 60
- Plant response rating, Quackgrass ([3]; 31 g ai/ha, Preemergence): 95
- Plant response rating, Quackgrass ([3]; 62 g ai/ha, Preemergence): 100
- Plant response rating, Quackgrass ([3]; Postemergence, 8 g ai/ha): 0
- Plant response rating, Quackgrass ([3]; Postemergence, 16 g ai/ha): 30
- Plant response rating, Quackgrass ([3]; Postemergence, 31 g ai/ha): 60
- Plant response rating, Quackgrass ([3]; Postemergence, 62 g ai/ha): 60
- Plant response rating, Crabgrass, Large ([4]; 8 g ai/ha, Preemergence): 30
- Plant response rating, Crabgrass, Large ([4]; 16 g ai/ha, Preemergence): 60
- Plant response rating, Crabgrass, Large ([4]; 31 g ai/ha, Preemergence): 98
- Plant response rating, Crabgrass, Large ([4]; 62 g ai/ha, Preemergence): 100
- Plant response rating, Crabgrass, Large ([4]; Postemergence, 8 g ai/ha): 65
- Plant response rating, Crabgrass, Large ([4]; Postemergence, 16 g ai/ha): 90
- Plant response rating, Crabgrass, Large ([4]; Postemergence, 31 g ai/ha): 95
- Plant response rating, Crabgrass, Large ([4]; Postemergence, 62 g ai/ha): 98
- Plant response rating, Mustard, Black ([5]; 8 g ai/ha, Preemergence): 0
- Plant response rating, Mustard, Black ([5]; 16 g ai/ha, Preemergence): 0
- Plant response rating, Mustard, Black ([5]; 31 g ai/ha, Preemergence): 0
- Plant response rating, Mustard, Black ([5]; 62 g ai/ha, Preemergence): 0
- Plant response rating, Mustard, Black ([5]; Postemergence, 8 g ai/ha): 0
- Plant response rating, Mustard, Black ([5]; Postemergence, 16 g ai/ha): 0
- Plant response rating, Mustard, Black ([5]; Postemergence, 31 g ai/ha): 0
- Plant response rating, Mustard, Black ([5]; Postemergence, 62 g ai/ha): 0
- Plant response rating, Signalgrass ([6]; 16 g ai/ha, Preemergence): 85
- Plant response rating, Signalgrass ([6]; 31 g ai/ha, Preemergence): 95
- Plant response rating, Signalgrass ([6]; 62 g ai/ha, Preemergence): 100
- Plant response rating, Signalgrass ([6]; Postemergence, 8 g ai/ha): 35
- Plant response rating, Signalgrass ([6]; Postemergence, 16 g ai/ha): 95
- Plant response rating, Signalgrass ([6]; Postemergence, 31 g ai/ha): 95
- Plant response rating, Signalgrass ([6]; Postemergence, 62 g ai/ha): 100
- Plant response rating, Dallisgrass ([7]; 8 g ai/ha, Preemergence): 35
- Plant response rating, Dallisgrass ([7]; 16 g ai/ha, Preemergence): 98
- Plant response rating, Dallisgrass ([7]; 31 g ai/ha, Preemergence): 98
- Plant response rating, Dallisgrass ([7]; 62 g ai/ha, Preemergence): 100
- Plant response rating, Dallisgrass ([7]; Postemergence, 8 g ai/ha): 60
- Plant response rating, Dallisgrass ([7]; Postemergence, 16 g ai/ha): 70
- Plant response rating, Dallisgrass ([7]; Postemergence, 31 g ai/ha): 75
- Plant response rating, Dallisgrass ([7]; Postemergence, 62 g ai/ha): 75
- Plant response rating, Ryegrass, Italian ([8]; 16 g ai/ha, Preemergence): 100
- Plant response rating, Ryegrass, Italian ([8]; 31 g ai/ha, Preemergence): 100
- Plant response rating, Ryegrass, Italian ([8]; Postemergence, 8 g ai/ha): 75
- Plant response rating, Ryegrass, Italian ([8]; Postemergence, 16 g ai/ha): 98
- Plant response rating, Ryegrass, Italian ([8]; Postemergence, 31 g ai/ha): 98
- Plant response rating, Ryegrass, Italian ([8]; Postemergence, 62 g ai/ha): 100
- Plant response rating, Purslane ([9]; 16 g ai/ha, Preemergence): 0
- Plant response rating, Purslane ([9]; 31 g ai/ha, Preemergence): 0
- Plant response rating, Purslane ([9]; 62 g ai/ha, Preemergence): 0
- Plant response rating, Purslane ([9]; Postemergence, 8 g ai/ha): 0
- Plant response rating, Purslane ([9]; Postemergence, 16 g ai/ha): 0
- Plant response rating, Purslane ([9]; Postemergence, 31 g ai/ha): 0
- Plant response rating, Purslane ([9]; Postemergence, 62 g ai/ha): 0
- Plant response rating, Groundsel ([10]; Postemergence, 31 g ai/ha): 0
- Plant response rating, Groundsel ([10]; Postemergence, 62 g ai/ha): 0
- Plant response rating, Chickweed ([11]; Postemergence, 8 g ai/ha): 0
- Plant response rating, Chickweed ([11]; Postemergence, 16 g ai/ha): 0
- Plant response rating, Chickweed ([11]; Postemergence, 31 g ai/ha): 0
- Plant response rating, Chickweed ([11]; Postemergence, 62 g ai/ha): 0
